Assay results published in PubChem BioAssay AID2060501 (Molecular Pharmacology Branch, DTP, NCI, 2025).

System: 282377-053-R-J1-PDC complex spheroids, viability
Assay: Anticancer human tumor 282377-053-R-J1-PDC patient-derived colon adenocarcinoma cell line growth inhibition [GQUAD]
Settings: for IC50: curve of first compound; for viability, T/C: stronger effect = lower value
Summary of the method: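 Tumor cells were grown as complex spheroids with HUVEC endothelial cells and mesenchymal stem cells as stroma. G-quadruplex stabilizers were combined with targeted agents over half-log dilutions from near the clinical Cmax, or from 10 microM.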

[1] = second compound 0.0316 µM, first compound 0.0316 µM
[2] = second compound 0.0316 µM, first compound 0.1 µM
[3] = second compound 0.0316 µM, first compound 0.316 µM
[4] = second compound 0.0316 µM, first compound 1 µM
[5] = second compound 0.0316 µM, first compound 3.16 µM
[6] = second compound 0.0316 µM, first compound 10 µM
[7] = second compound 0.1 µM, first compound 0.0316 µM
[8] = second compound 0.1 µM, first compound 0.1 µM
[9] = second compound 0.1 µM, first compound 0.316 µM
[10] = second compound 0.1 µM, first compound 1 µM
[11] = second compound 0.1 µM, first compound 3.16 µM
[12] = second compound 0.1 µM, first compound 10 µM
[13] = second compound 0.316 µM, first compound 0.0316 µM
[14] = second compound 0.316 µM, first compound 0.1 µM
[15] = second compound 0.316 µM, first compound 0.316 µM
[16] = second compound 0.316 µM, first compound 1 µM
[17] = second compound 0.316 µM, first compound 3.16 µM
[18] = second compound 0.316 µM, first compound 10 µM
[19] = second compound 1 µM, first compound 0.0316 µM
[20] = second compound 1 µM, first compound 0.1 µM
[21] = second compound 1 µM, first compound 0.316 µM
[22] = second compound 1 µM, first compound 1 µM
[23] = second compound 1 µM, first compound 3.16 µM
[24] = second compound 1 µM, first compound 10 µM
[25] = second compound 3.16 µM, first compound 0.0316 µM
[26] = second compound 3.16 µM, first compound 0.1 µM
[27] = second compound 3.16 µM, first compound 0.316 µM
[28] = second compound 3.16 µM, first compound 1 µM
[29] = second compound 3.16 µM, first compound 3.16 µM
[30] = second compound 3.16 µM, first compound 10 µM
[31] = second compound 10 µM, first compound 0.0316 µM
[32] = second compound 10 µM, first compound 0.1 µM
[33] = second compound 10 µM, first compound 0.316 µM
[34] = second compound 10 µM, first compound 1 µM
[35] = second compound 10 µM, first compound 3.16 µM
[36] = second compound 10 µM, first compound 10 µM
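Further: spheroids exposed to compounds for 7 days before readout.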
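Wherever viability, T/C is given: percent of vehicle DMSO control viability with 100% = untreated-like growth.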

COc1cccc2c1C(=O)c1c(O)c3c(c(O)c1C2=O)CC(O)(C(=O)CO)CC3OC1CC(N)C(O)C(C)O1 (stereo unspecified) + CN(C)c1ccc(Nc2c3ccc(NC(=O)CCN4CCCC4)cc3nc3cc(NC(=O)CCN4CCCC4)ccc23)cc1
IC50 (second compound 0.0316 µM): 1530 nM
IC50 (second compound 0.1 µM): 1890 nM
IC50 (second compound 0.316 µM): 1950 nM
IC50 (second compound 1 µM): 2260 nM
IC50 (second compound 3.16 µM): 2060 nM
IC50 (second compound 10 µM): 2580 nM
viability, T/C [1]: 114%
viability, T/C [2]: 99%
viability, T/C [3]: 92.8%
viability, T/C [4]: 62.6%
viability, T/C [5]: 27.7%
viability, T/C [6]: 1.26%
viability, T/C [7]: 104%
viability, T/C [8]: 96.2%
viability, T/C [9]: 109%
viability, T/C [10]: 71.6%
viability, T/C [11]: 31.1%
viability, T/C [12]: 1.8%
viability, T/C [13]: 89.4%
viability, T/C [14]: 110%
viability, T/C [15]: 98.6%
viability, T/C [16]: 73.7%
viability, T/C [17]: 32.4%
viability, T/C [18]: 2.16%
viability, T/C [19]: 85%
viability, T/C [20]: 94.2%
viability, T/C [21]: 106%
viability, T/C [22]: 73.8%
viability, T/C [23]: 39.5%
viability, T/C [24]: 1.89%
viability, T/C [25]: 97.8%
viability, T/C [26]: 88.1%
viability, T/C [27]: 96.5%
viability, T/C [28]: 74.2%
viability, T/C [29]: 35.2%
viability, T/C [30]: 2.76%
viability, T/C [31]: 97%
viability, T/C [32]: 100%
viability, T/C [33]: 105%
viability, T/C [34]: 83.6%
viability, T/C [35]: 42.9%
viability, T/C [36]: 4.44%

COc1cc(C2c3cc4c(cc3C(OC3OC5COC(C)OC5C(O)C3O)C3COC(=O)C23)OCO4)cc(OC)c1O (stereo unspecified) + Cc1[nH]c2ccc(F)cc2c1-c1nc2c3cccnc3c3ncccc3c2[nH]1
IC50 (second compound 0.0316 µM): > 10000 nM
IC50 (second compound 0.1 µM): > 10000 nM
IC50 (second compound 0.316 µM): > 10000 nM
IC50 (second compound 1 µM): > 10000 nM
IC50 (second compound 3.16 µM): 1230 nM
IC50 (second compound 10 µM): 384 nM
viability, T/C [1]: 99.9%
viability, T/C [2]: 102%
viability, T/C [3]: 104%
viability, T/C [4]: 89%
viability, T/C [5]: 66.5%
viability, T/C [6]: 62.6%
viability, T/C [7]: 94.3%
viability, T/C [8]: 108%
viability, T/C [9]: 83.5%
viability, T/C [10]: 98.2%
viability, T/C [11]: 76.4%
viability, T/C [12]: 70.1%
viability, T/C [13]: 102%
viability, T/C [14]: 117%
viability, T/C [15]: 96.2%
viability, T/C [16]: 105%
viability, T/C [17]: 76.9%
viability, T/C [18]: 54.2%
viability, T/C [19]: 113%
viability, T/C [20]: 95.5%
viability, T/C [21]: 95.2%
viability, T/C [22]: 94.1%
viability, T/C [23]: 72%
viability, T/C [24]: 54.4%
viability, T/C [25]: 72.5%
viability, T/C [26]: 85.6%
viability, T/C [27]: 73.5%
viability, T/C [28]: 56%
viability, T/C [29]: 24.8%
viability, T/C [30]: 23.2%
viability, T/C [31]: 52.7%
viability, T/C [32]: 44%
viability, T/C [33]: 63.8%
viability, T/C [34]: 32.7%
viability, T/C [35]: 16.1%
viability, T/C [36]: 17.5%

O=C(c1cc(Cc2n[nH]c(=O)c3ccccc23)ccc1F)N1CCN(C(=O)C2CC2)CC1 + CN(C)c1ccc(Nc2c3ccc(NC(=O)CCN4CCCC4)cc3nc3cc(NC(=O)CCN4CCCC4)ccc23)cc1
IC50 (second compound 0.0316 µM): > 10000 nM
IC50 (second compound 0.1 µM): > 10000 nM
IC50 (second compound 0.316 µM): > 10000 nM
IC50 (second compound 1 µM): > 10000 nM
IC50 (second compound 3.16 µM): > 10000 nM
IC50 (second compound 10 µM): > 10000 nM
viability, T/C [1]: 102%
viability, T/C [2]: 91.5%
viability, T/C [3]: 94.2%
viability, T/C [4]: 97.4%
viability, T/C [5]: 105%
viability, T/C [6]: 96.8%
viability, T/C [7]: 128%
viability, T/C [8]: 107%
viability, T/C [9]: 96.9%
viability, T/C [10]: 100%
viability, T/C [11]: 89.7%
viability, T/C [12]: 90.7%
viability, T/C [13]: 102%
viability, T/C [14]: 92.6%
viability, T/C [15]: 83.4%
viability, T/C [16]: 81.5%
viability, T/C [17]: 91.2%
viability, T/C [18]: 109%
viability, T/C [19]: 108%
viability, T/C [20]: 88%
viability, T/C [21]: 88.1%
viability, T/C [22]: 74.9%
viability, T/C [23]: 74.7%
viability, T/C [24]: 92.4%
viability, T/C [25]: 91.6%
viability, T/C [26]: 83.5%
viability, T/C [27]: 99.3%
viability, T/C [28]: 101%
viability, T/C [29]: 86.5%
viability, T/C [30]: 89.5%
viability, T/C [31]: 99%
viability, T/C [32]: 88.4%
viability, T/C [33]: 105%
viability, T/C [34]: 75.9%
viability, T/C [35]: 108%
viability, T/C [36]: 119%
